In ChEMBL document CHEMBL1201862, “PubChem BioAssay data set” (2004):
Activity calls are given as the source filed them.

Columns and labels:
[1] = cells; type: functional, cell-based
[2] = cells; type: functional, cell-based; remark: listed apart in the source
[3] = HepG2 cell cytotoxicity, dose response, cytotoxicity control for Shn3 inhibitor project, CellTiter-Glo, cherry-picked (AID 624134); type: functional, cell-based
[4] = Shn3 3'UTR reporter inhibitors, dose response, cell-based, Clone20 osteoblasts, firefly luciferase, cherry-picked (AID 624132); type: functional;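 also: firefly luciferase luminescence from reporter carrying the Shn3 3'UTR in osteoblasts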
[5] = control 3'UTR Renilla luciferase suppression, dose response, counter-screen for Shn3 inhibitor project, cell-based, Clone20-Shn3RL, cherry-picked (AID 624133); type: functional
[6] = molecular target: T1, Corticotropin-releasing factor receptor 2/Corticotropin-releasing factor-binding protein (Homo sapiens, UniProt P24387+Q13324); assay: activators of CRF receptor 2 with binding protein – uHTS hits, confirmation (AID 602473); type: functional; details: read-out: EC50_Mean
T1 sequence (Q13324 whole entry): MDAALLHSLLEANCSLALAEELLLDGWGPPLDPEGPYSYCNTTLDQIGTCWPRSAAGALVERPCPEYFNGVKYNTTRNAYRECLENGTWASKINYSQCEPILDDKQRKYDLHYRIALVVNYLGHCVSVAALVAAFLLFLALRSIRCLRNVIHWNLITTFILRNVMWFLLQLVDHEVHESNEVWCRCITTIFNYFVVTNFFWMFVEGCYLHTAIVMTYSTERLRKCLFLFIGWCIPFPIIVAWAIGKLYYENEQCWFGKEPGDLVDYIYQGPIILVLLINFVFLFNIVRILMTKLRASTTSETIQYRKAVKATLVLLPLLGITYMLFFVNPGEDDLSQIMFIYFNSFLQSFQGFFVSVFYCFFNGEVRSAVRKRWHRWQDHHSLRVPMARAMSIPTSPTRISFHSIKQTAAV
T1 sequence (P24387 whole entry): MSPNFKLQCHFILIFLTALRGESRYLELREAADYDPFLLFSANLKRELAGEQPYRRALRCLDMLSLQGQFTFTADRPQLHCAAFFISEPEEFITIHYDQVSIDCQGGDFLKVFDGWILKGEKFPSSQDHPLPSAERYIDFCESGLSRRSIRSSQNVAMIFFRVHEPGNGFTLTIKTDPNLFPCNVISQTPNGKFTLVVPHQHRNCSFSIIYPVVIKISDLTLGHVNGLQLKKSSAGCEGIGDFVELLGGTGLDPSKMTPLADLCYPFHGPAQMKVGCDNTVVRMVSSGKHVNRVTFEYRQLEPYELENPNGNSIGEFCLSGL

[7] = microbe, parasite or virus in culture; type: functional; details: Mycobacterium tuberculosis
[8] = molecular target: T2, Cytochrome P450 1A2 (Homo sapiens, UniProt P05177);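 also: PubChem cytochrome P450 panel assay, CYP1A2 panel member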
T2 sequence (P05177 whole entry): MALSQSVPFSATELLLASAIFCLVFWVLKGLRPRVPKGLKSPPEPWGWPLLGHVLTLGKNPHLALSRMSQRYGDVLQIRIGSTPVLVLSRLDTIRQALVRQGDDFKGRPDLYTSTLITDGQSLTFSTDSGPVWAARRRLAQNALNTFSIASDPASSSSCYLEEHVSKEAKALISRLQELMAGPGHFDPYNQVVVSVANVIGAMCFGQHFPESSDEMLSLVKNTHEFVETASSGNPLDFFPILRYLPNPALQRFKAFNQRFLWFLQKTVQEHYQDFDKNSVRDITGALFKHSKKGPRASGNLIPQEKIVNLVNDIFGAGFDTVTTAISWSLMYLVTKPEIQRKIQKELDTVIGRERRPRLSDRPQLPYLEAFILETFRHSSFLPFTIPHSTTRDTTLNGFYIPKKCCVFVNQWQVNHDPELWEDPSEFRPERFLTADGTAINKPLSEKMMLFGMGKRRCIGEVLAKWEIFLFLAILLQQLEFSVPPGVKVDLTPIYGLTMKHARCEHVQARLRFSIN

[9] = molecular target: Cytochrome P450 3A4 (Homo sapiens, UniProt P08684);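 also: CYP3A4 tested as one member of a cytochrome P450 panel screen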
Sequence of Cytochrome P450 3A4 (P08684 whole entry): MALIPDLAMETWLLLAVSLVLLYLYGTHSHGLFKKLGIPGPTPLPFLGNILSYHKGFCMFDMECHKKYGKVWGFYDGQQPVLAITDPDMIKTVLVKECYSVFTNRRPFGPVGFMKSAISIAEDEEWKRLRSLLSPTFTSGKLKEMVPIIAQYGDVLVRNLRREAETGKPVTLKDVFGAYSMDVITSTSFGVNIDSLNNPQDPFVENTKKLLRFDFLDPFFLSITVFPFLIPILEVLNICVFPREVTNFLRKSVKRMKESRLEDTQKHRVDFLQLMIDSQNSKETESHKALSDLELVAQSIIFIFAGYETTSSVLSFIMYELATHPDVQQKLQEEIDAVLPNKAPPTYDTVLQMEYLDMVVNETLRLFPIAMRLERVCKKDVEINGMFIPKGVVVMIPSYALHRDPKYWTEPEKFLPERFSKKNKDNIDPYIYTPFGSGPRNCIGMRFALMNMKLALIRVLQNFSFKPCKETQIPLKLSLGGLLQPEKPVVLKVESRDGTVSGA

[10] = molecular target: T3, Heat shock factor protein 1 (Mus musculus, UniProt P38532); assay: HSF1 potentiators in luciferase reporter cells, confirmation, cell-based, NIH3T3, luminescence, dose retest (AID 435004); type: functional;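 also: stress induced by proteasome inhibitor MG132 added 30 min after compound; luciferase reporter driven by HSF1 response element in NIH3T3 cells; actives raise luminescence as potentiators of the MG132 stress response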
T3 sequence (P38532 whole entry): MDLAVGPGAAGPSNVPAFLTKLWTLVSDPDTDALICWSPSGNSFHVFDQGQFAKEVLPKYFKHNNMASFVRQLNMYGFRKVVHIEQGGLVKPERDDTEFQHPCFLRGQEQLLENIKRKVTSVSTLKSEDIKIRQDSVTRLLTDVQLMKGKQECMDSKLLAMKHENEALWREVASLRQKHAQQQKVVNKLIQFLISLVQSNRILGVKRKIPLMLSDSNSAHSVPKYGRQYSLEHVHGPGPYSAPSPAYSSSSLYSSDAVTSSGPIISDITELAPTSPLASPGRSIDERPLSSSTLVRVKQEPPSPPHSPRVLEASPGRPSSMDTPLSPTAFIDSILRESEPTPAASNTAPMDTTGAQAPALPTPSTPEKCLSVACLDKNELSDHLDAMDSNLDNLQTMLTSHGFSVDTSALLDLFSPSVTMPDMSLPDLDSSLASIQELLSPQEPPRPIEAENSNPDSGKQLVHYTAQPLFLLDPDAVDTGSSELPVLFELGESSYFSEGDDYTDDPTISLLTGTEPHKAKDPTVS

[11] = inhibitors of intracellular T. cruzi replication, confirmation, NIH3T3 host cells, beta-gal luminescence (AID 2044); type: functional, cell-based;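 also: intracellular parasites grown in NIH/3T3 mouse fibroblasts as host cells; luminescent beta-galactosidase reporter signal from transgenic T. cruzi replicating inside host cells; inhibitors lower the luminescence signal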
[12] = cytotoxicity toward NIH3T3 fibroblasts, dose response, counter-screen, cell-based, ATP luminescence, mouse fibroblasts (AID 2010); type: functional;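 also: cells exposed to compound for about 90 hours before reading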
[13] = molecular target: Cytochrome P450 2C19 (Homo sapiens, UniProt P33261); assay: Cytochrome panel assay with activity outcomes. Panel member name: p450-cyp2c19 Compounds with AC50 equal or less than 10 uM are considered active; type: functional
Sequence of Cytochrome P450 2C19 (P33261 whole entry): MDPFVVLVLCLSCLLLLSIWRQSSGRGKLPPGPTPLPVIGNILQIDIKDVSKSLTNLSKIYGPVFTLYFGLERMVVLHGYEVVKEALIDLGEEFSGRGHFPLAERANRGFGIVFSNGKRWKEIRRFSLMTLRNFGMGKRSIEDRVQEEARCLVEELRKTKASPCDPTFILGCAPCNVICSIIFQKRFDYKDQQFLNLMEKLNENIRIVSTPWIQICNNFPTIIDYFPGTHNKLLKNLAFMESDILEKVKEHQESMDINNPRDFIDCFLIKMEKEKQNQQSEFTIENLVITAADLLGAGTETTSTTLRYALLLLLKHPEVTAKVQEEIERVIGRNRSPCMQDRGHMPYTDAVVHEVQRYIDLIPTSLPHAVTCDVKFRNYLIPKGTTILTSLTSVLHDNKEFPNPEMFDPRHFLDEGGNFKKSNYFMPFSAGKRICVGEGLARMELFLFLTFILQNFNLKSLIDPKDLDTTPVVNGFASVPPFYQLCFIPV

[14] = molecular target: T3, Heat shock factor protein 1; assay: inhibition of MG132-induced HSE-luciferase signal, confirmation, cell-based, NIH3T3, luminescence, dose retest (AID 2382); type: functional;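 also: NIH3T3 fibroblasts with HSF1-driven luciferase reporter stressed by proteasome inhibitor MG132; luminescence from HSF1-driven luciferase expression after 8 hours of MG132 stress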
[15] = molecular target: Cytochrome P450 2C9 (Homo sapiens, UniProt P11712)
Sequence of Cytochrome P450 2C9 (P11712 whole entry): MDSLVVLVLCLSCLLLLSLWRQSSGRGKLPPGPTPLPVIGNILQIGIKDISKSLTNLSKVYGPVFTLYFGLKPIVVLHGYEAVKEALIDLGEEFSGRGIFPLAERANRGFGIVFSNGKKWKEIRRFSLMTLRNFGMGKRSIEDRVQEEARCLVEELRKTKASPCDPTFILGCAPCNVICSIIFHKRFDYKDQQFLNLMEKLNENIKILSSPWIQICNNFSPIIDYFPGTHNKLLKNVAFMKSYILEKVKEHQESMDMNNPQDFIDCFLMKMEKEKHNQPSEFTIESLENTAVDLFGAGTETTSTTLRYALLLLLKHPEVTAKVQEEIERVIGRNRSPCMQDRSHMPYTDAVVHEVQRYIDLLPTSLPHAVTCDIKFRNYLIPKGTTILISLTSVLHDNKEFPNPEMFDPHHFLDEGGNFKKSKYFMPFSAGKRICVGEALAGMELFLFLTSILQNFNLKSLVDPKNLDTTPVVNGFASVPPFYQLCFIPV

[16] = system: Streptococcus sp. 'group A'; assay: growth inhibition of control SK(-) GAS strain, dose response, counter-screen for streptokinase expression inhibitor project, luminescence, kanamycin, BacTiterGlo, confirmation (AID 1900); type: functional, organism-based
[17] = Luminescence Cell-Based Dose Retest to Confirm Inhibitors of Cancer Stem Cells. [Related pubchem assays (depositor defined):AID2717, AID2721]; type: functional; details: Homo sapiens
[18] = system: Streptococcus; assay: Group A Streptococcus viability loss, dose response, counter-screen for streptokinase expression inhibitor project, luminescence, BacTiterGlo (AID 1915); type: functional, organism-based;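 also: potency for reduction of bacterial viability or growth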
[19] = growth suppression of beta-catenin-knockout colon cells, dose response, cell-based, HCT116, human colon tumor (AID 1045); type: functional;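 also: HCT116 colon tumor cells with beta catenin knocked out; cells exposed to compound for 60 hours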
[20] = growth suppression of PTEN-null colon cells, dose response, cell-based, HCT116 PTEN knockout (AID 1047); type: functional;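 also: HCT116 colon tumor cells with PTEN knocked out; cells exposed to compound for 60 hours before readout; potency for loss of cell viability measured by luminescence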
[21] = molecular target: T4, Streptokinase A (Streptococcus pyogenes serotype M1, UniProt P10520); assay: S. pyogenes streptokinase expression inhibitors, potency, dose response, plasminogen activation absorbance, OD405 (AID 1914); type: functional, Streptococcus pyogenes M1 GAS;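 also: secreted streptokinase activity via plasminogen activation per viability signal from cell pellet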
T4 sequence (P10520 whole entry): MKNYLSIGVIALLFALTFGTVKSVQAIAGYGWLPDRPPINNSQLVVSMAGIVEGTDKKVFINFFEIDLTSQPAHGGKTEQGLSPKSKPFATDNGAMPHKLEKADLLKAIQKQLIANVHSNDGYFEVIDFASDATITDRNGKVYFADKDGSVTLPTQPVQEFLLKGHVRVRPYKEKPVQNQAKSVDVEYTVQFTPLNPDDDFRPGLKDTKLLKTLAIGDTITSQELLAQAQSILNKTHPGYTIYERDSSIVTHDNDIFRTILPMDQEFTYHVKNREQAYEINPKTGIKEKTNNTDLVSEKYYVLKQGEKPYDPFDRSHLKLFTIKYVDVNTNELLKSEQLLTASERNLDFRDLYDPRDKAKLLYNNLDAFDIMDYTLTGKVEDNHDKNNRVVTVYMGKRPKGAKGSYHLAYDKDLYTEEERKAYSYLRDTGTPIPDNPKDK

[22] = molecular target: Luciferin 4-monooxygenase (Photinus pyralis, UniProt P08659); assay: firefly luciferase enzyme inhibitors, dose response, biochemical, luminescence (AID 1891)
Sequence of Luciferin 4-monooxygenase (P08659 whole entry): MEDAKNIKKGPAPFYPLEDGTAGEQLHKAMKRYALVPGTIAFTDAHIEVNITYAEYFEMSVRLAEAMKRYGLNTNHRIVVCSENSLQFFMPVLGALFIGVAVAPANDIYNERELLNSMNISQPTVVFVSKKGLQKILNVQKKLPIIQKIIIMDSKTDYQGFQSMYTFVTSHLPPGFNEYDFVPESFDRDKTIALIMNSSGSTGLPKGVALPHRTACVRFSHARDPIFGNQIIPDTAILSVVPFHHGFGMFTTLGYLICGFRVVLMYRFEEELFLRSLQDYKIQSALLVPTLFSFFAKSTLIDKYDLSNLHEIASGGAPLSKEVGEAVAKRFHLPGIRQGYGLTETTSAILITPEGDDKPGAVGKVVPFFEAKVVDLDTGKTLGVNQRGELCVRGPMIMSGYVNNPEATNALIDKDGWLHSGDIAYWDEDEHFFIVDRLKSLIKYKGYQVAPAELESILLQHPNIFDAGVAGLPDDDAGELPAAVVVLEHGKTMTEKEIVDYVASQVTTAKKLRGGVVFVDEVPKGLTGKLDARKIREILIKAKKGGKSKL

[23] = molecular target: FAD-linked sulfhydryl oxidase ALR (Homo sapiens, UniProt P55789); assay: inhibitors of human ALR sulfhydryl oxidase, dose response, biochemical, H2O2 detection, luminescence, cherry-pick (AID 493248)
Sequence of FAD-linked sulfhydryl oxidase ALR (P55789 whole entry): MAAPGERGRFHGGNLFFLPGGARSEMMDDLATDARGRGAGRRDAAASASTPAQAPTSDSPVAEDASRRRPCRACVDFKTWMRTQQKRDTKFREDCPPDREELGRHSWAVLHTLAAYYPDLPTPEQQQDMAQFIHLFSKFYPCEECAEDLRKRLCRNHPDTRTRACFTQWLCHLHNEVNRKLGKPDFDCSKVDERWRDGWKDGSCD

[24] = Luminescence Cell-Based Dose Confirmation HTS to Identify Inhibitors of Platelet Dense Granule Release. [Related pubchem assays: 1663 (Primary HTS), 1678 (Summary of Project)]; type: functional

## O=C(NC1CCCC1)c1cc(-c2cccs2)on1
[1]
  EC50: 108 µM (active)
[2]
  EC50: 52.2 µM (active)

## CC(C)Cc1ccc(C(C)C(=O)Nc2ccccc2O)cc1 (stereo unspecified)
[3]
  AC50: 6.63 µM (active)
[4]
  AC50: 1.89 µM (active)
[5]
  AC50: 4.26 µM (active)
[6]
  EC50: 5.7 µM (active)

## Cc1sc2ncnc(Oc3ccc(-n4ccnc4)cc3)c2c1C
[7]
  CC50: > 40 µM (active)

## Cc1cc(O)c(C(C)C)cc1NC(=O)Nc1cccc2ccccc12
[8]
  AC50: 0.794 µM (inconclusive)
[9]
  AC50: 3.16 µM (inconclusive)

## COc1ccc(NC(=O)c2[nH]c(C)c(C(C)=O)c2C)cc1S(=O)(=O)Nc1ccc(Br)cc1
[10]
  EC50: > 260 µM (inactive)
[11]
  EC50: 1.12 µM (active)
[12]
  EC50: > 60 µM (not active)

## COc1cc(OC)cc(C(=O)NCC(=O)OC2CCOC2=O)c1 (stereo unspecified)
[8]
  AC50: 0.0316 µM (inconclusive)
[13]
  AC50: inconclusive

## CCOC(=O)C1(CCOc2ccccc2)CCN(Cc2cccc(-n3cccn3)c2)CC1
[14]
  EC50: > 195 µM (not active)
[7]
  CC50: > 40 µM (active)

## Cc1nn(C)c(Cl)c1S(=O)(=O)N[C@@H](c1ccccc1)[C@]1(C)C[C@H]1[C@@H](C)C(=O)Nc1ccc2ccccc2c1
[8]
  AC50: 5.01 µM (inconclusive)
[15]
  AC50: 6.31 µM (inconclusive)

## FC(F)(F)c1cccc(NC(S)=NCc2ccccn2)c1
[10]
  EC50: > 260 µM (inactive)

## Cc1ccccc1-c1cncnc1NC1CCNCC1
[8]
  AC50: 0.00794 µM (inconclusive)

## COc1ccc(NS(=O)(=O)c2ccc3[nH]c(COc4cccc5ccccc45)nc3c2)cc1
[16]
  EC50: 6.33 µM (active)
[17]
  AC50: 3.87 µM (active)
[18]
  EC50: 91 µM (active)
[7]
  CC50: 32.6 µM (active)

## Cc1ccc(NC(=O)C2CCN(S(=O)(=O)c3ccc4c(c3)NC(=O)C(C)S4)CC2)cc1C (stereo unspecified)
[3]
  AC50: 68.3 µM (active)
[4]
  AC50: 2.61 µM (active)
[5]
  AC50: 6.43 µM (active)

## O=[N+]([O-])c1cccc(/C=C/c2ccc3cccc(O)c3n2)c1
[1]
  EC50: > 350 µM (not active)
[16]
  EC50: 3.36 µM (active)
[2]
  EC50: 7.51 µM (active)
[18]
  EC50: 7.37 µM (active)

## CC(C)C(=O)C(C)(C)CCc1ccccn1
[8]
  AC50: 2.51 µM (inconclusive)

## N#CCCn1cc(/C=C2\NC(=S)N(c3ccccc3)C2=O)c(-c2ccc(-c3ccccc3)cc2)n1
[7]
  CC50: 38.2 µM (active)

## CC(C)Cc1nnc(NC(=O)CCC(=O)N2CCC3(CC2)OCCO3)s1
[1]
  EC50: > 350 µM (not active)
[2]
  EC50: > 350 µM (not active)

## Nc1ncncc1-c1ccc([N+](=O)[O-])cc1
[8]
  AC50: 28.2 µM (inconclusive)
[9]
  AC50: 12.6 µM (inconclusive)
[13]; read-out: AC50
  AC50: 10 µM (inconclusive)

## CC1CC(C)(C)N(C(=O)NC2CCCCC2)c2ccccc21 (stereo unspecified)
[10]
  EC50: > 260 µM (inactive)

## Cc1ccc(S(=O)(=O)c2cccc(S(=O)(=O)N3CCCC3)c2)cc1S(=O)(=O)N1CCCC1
[19]
  EC50: 28.3 µM (active)
[20]
  EC50: 35.7 µM (active)

## Cc1cc(C)n2cc(COc3ccc4ccccc4c3)nc2n1
[10]
  EC50: > 260 µM (inconclusive)

## COc1ccc2c(c1)N(CC[C@H]1CCCCN1C)c1ccccc1S2
[8]
  AC50: 1.26 µM (inconclusive)

## COc1ccc(-n2c(C)csc2=S)cc1
[1]
  EC50: > 350 µM (not active)
[2]
  EC50: > 350 µM (not active)

## Cc1cccc(NC(=O)C2CC(=O)N=C(Nc3nc4ccccc4s3)N2)c1 (stereo unspecified)
[1]
  EC50: > 350 µM (not active)
[2]
  EC50: > 350 µM (not active)

## COC(=O)N1CCC[C@@]2(CCN(C(=O)Nc3ccccc3)C2)C1
[8]
  AC50: 12.6 µM (inconclusive)

## CCNC(=S)N/N=C/c1ccc(-c2ccccc2)o1
[10]
  EC50: > 260 µM (inactive)

## COc1cccc(C2C3=C(N=c4s/c(=C\c5cccc(O)c5)c(=O)n42)c2ccccc2CC3)c1OC (stereo unspecified)
[19]
  EC50: 15.3 µM (active)
[20]
  EC50: 13.9 µM (active)
[16]
  EC50: 20.8 µM (active)
[21]
  EC50: 6.31 µM (active)
[17]
  AC50: 4.06 µM (active)
[18]
  EC50: > 150 µM (not active)
[7]
  CC50: 32.5 µM (active)

## BrC(/C=C\c1ccccc1)=N/Nc1nc(N2CCOCC2)nc(N2CCOCC2)n1
[10]
  EC50: > 260 µM (inactive)

## COc1ccc(/C=N/NC(=O)c2ccncc2)cc1CN1CCN(c2ccc(F)cc2)CC1
[22]
  EC50: > 112 µM (not active)
[23]
  AC50: 7.46 µM (active)
[24]
  EC50: > 112 µM (not active)

## O=C1CC(=C(c2ccccc2)c2ccccc2)C(=O)N1CCCCN1CCN(c2ccccc2)CC1
[7]
  CC50: > 40 µM (active)
